# Assay results: patent US9351955B2, “Compounds and pharmaceutical compositions thereof for the treatment of cystic fibrosis” (Galapagos NV, priority 2013, dated 2016)
# Like-named read-outs stand apart in the source and are kept apart here.
# Columns and labels:
# Assay type in all cases: cell-based
# CFTR ΔF508 mutant [1] = molecular target: T1, CFTR ΔF508 mutant (Homo sapiens, UniProt P13569, DEL508-508); test: YFP-halide influx assay for the CFTR-ΔF508 mutation (96 well, CFBE41o- cells); conditions: read-out: EC50 measured by YFP-halide influx assay for the CFTR-ΔF508
# T1 construct: expressed in transfected cells; host or cells: CFBE41o- (adenoviral transduction)
# T1 sequence (P13569 with tags, fused parts or gaps DEL508-508): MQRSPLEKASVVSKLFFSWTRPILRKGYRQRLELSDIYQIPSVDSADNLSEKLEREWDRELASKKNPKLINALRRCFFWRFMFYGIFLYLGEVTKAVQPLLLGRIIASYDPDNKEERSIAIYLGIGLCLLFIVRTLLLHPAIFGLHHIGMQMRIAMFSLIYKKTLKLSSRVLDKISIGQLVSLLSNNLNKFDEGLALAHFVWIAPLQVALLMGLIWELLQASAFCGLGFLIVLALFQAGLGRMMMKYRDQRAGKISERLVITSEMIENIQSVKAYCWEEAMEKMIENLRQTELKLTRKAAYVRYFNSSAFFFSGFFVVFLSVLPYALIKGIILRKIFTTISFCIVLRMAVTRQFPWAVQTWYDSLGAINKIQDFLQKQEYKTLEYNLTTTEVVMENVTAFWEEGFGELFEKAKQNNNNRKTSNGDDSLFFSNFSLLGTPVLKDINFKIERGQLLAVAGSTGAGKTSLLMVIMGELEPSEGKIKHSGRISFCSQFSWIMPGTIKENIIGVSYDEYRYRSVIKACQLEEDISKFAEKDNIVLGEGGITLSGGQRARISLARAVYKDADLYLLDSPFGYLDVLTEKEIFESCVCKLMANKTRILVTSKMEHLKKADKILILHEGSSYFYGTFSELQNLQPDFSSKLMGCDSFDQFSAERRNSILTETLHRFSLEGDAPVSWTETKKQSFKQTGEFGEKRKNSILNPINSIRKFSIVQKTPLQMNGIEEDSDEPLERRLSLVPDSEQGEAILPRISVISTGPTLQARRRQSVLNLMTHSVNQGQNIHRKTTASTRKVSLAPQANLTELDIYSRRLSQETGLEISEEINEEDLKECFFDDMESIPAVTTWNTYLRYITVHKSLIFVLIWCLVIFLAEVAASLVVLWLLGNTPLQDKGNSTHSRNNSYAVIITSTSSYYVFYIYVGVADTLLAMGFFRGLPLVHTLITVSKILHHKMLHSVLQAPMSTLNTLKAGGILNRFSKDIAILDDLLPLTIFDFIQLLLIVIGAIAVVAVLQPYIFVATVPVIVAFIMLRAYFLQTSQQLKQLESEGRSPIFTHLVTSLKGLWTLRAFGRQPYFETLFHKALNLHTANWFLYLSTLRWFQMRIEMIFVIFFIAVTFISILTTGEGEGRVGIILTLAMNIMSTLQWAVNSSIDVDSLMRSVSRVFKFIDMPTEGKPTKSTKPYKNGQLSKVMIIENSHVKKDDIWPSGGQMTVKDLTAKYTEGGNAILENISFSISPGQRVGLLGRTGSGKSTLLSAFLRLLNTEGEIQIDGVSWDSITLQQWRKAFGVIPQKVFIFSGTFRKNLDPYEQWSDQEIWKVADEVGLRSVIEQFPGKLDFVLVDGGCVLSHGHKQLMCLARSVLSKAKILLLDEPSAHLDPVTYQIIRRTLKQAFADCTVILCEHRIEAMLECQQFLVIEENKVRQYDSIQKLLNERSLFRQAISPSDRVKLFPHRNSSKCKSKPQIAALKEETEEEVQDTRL
# Source text: 6.1. YFP-Halide Influx Assay for the CFTR-ΔF508 Mutation
# The YFP halide influx assay measures the functionality of the cystic fibrosis Transmembrane Conductance regulator (CFTR) channels in the cystic fibrosis bronchial epithelium cell line CFBE41o-. The assay is used to evaluate the capacity of compounds to increase the open probability of existing CFTR channels in the membrane. It makes use of the observation that the yellow fluorescent protein (YFP) variant YFP H148Q, I152L has its fluorescence substantially quenched by halide ions like Cl^− and I^−. (Galietta et al., 2001; Nagai et al., 2002)
# For this purpose, CFBE410-cells are seeded in 96 well plates (6000 CFBE cells/well). One day after seeding, the CFBE cells are transduced with adenoviral vectors that direct the expression of the CFTR ΔF508 mutant and of the YFP reporter. Cells are incubated at 27° C., 5% CO2 for 24 hours so as to allow for the proper folding and migration to the membrane of the CFTR channel or treated with a CFTR modulator during 24 h at 37° C.
# The […] quenching of fluorescence is recorded immediately after injection of I^− for 7 seconds. The capacity of a compound to increase the channel opening is directly correlated with the decrease in fluorescence, and is expressed as (1-(fluorescence after 7 seconds (F)/fluorescence before injection (F0))) and an EC50 can be derived from a (1−F/F0) vs compound concentration plot.
# CFTR G551D mutant = molecular target: T2, CFTR G551D mutant (Homo sapiens, UniProt P13569, G551D); test: YFP-halide influx assay for the CFTR-G551D mutation (HEK293 cells); conditions: read-out: EC50 measured by YFP-halide influx assay for the CFTR-G551D
# T2 construct: expressed in transfected cells; host or cells: HEK293 (reverse transfection with plasmids)
# T2 sequence (P13569 whole entry G551D): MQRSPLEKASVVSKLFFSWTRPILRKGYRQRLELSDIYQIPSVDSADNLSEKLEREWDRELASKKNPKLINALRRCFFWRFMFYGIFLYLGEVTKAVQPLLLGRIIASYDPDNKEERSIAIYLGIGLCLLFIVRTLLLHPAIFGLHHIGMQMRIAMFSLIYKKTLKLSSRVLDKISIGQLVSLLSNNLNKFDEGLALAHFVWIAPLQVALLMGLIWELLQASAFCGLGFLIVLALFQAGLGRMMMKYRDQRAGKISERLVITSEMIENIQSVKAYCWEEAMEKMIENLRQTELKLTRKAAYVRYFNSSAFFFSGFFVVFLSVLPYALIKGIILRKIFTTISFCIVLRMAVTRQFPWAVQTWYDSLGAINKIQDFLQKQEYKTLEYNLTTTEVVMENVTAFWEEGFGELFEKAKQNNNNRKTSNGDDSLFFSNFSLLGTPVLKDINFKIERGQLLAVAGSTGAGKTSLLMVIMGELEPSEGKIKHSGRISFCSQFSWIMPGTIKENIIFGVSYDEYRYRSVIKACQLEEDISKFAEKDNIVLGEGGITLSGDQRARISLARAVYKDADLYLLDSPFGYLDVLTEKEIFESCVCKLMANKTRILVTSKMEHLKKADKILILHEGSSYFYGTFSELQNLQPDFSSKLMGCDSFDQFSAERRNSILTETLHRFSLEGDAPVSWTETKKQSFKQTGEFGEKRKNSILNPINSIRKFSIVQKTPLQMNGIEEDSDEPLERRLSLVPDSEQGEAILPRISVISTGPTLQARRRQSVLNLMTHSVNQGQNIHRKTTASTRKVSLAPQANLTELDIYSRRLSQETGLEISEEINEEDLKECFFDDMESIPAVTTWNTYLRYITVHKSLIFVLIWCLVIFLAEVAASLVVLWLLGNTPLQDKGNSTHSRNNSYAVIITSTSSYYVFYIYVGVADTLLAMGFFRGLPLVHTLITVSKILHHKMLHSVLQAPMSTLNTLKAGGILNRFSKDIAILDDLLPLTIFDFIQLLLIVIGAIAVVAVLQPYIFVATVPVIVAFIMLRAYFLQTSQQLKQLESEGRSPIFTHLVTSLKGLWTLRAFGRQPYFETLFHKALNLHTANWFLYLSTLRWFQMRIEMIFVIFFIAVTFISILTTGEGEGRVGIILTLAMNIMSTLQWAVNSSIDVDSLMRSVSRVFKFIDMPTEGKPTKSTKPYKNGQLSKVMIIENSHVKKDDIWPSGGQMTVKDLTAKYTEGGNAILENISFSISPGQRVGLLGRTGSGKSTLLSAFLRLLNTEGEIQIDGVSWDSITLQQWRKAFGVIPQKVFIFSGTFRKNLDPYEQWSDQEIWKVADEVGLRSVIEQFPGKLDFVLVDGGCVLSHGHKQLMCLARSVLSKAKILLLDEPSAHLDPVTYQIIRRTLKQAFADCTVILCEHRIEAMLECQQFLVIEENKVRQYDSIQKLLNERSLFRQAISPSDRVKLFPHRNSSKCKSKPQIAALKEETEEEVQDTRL
# Method in brief: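 HEK293 cells reverse-transfected with CFTR G551D and halide-sensitive YFP, expressed 24 h at 37 °C. Iodide-induced fluorescence quench recorded for 7 s after I^− injection; response as 1−F/F0, EC50 from concentration plot.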
# CFTR ΔF508 mutant [2] = molecular target: T1, CFTR ΔF508 mutant; test: YFP-halide influx assay for the CFTR-ΔF508 mutation (384 well, CFBE41o- cells, FDSS/μCell); conditions: forskolin 10.67 μM, fluorescence after 36 seconds, read-out: EC50 measured by YFP-halide influx assay for the CFTR-ΔF508
# Method in brief: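 CFBE41o- cells were adenovirally transduced with ΔF508 CFTR and the YFP H148Q/I152L reporter. Cells were then held 24 h at 27 °C or treated 24 h at 37 °C with a CFTR modulator. Iodide-induced quench was recorded for 2 min, and EC50 was derived from 1−F/F0 at 36 s against compound concentration.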
# [3] = compounds of the invention, 96 well, forskolin 10.67 μM
# [4] = HEK293 cells expressing CFTR G551D and YFP reporter, forskolin 10.67 μM
SMILES,EC50 (CFTR ΔF508 mutant [1]; [3]) [nM],EC50 (CFTR G551D mutant; [4]) [nM],EC50 (CFTR ΔF508 mutant [2]) [nM],EC50 (CFTR ΔF508 mutant [1]; comparative compounds) [nM],"EC50 (CFTR G551D mutant; comparative compounds, HEK293 cells) [nM]"
"CC1(C)Cc2c(sc(NC(=O)c3ccccc3F)c2C(N)=O)C(C)(C)O1 [Compound 1, 2-(2-fluorobenzamido)-5,5,7,7-tetramethyl-5,7-dihydro-4H-thieno[2,3-c]pyran-3-carboxamide]",12.2,282,65.6,–,–
"CC1(C)Cc2c(sc(NC(=O)c3ccccc3C(F)(F)F)c2C(N)=O)C(C)(C)O1 [Compound 5, 5,5,7,7-tetramethyl-2-(2-(trifluoromethyl)benzamido)-5,7-dihydro-4H-thieno[2,3-c]pyran-3-carboxamide]",63.4,764,47.8,–,–
"CC1(C)Cc2c(sc(NC(=O)c3ccc(F)cc3C(F)(F)F)c2C(N)=O)C(C)(C)O1 [Compound 7, 2-(4-fluoro-2-(trifluoromethyl)benzamido)-5,5,7,7-tetramethyl-5,7-dihydro-4H-thieno[2,3-c]pyran-3-carboxamide]",60.2,1090,70.3,–,–
"CC1(C)Cc2c(sc(NC(=O)c3ccc(F)cc3F)c2C(N)=O)C(C)(C)O1 [Compound 8, 2-(2,4-difluorobenzamido)-5,5,7,7-tetramethyl-5,7-dihydro-4H-thieno[2,3-c]pyran-3-carboxamide]",22.8,308,27.3,–,–
"CC1(C)Cc2c(sc(NC(=O)c3cc(C(C)(C)C)[nH]n3)c2C(N)=O)C(C)(C)O1 [Compound 16, 5-tert-butyl-N-(3-carbamoyl-5,5,7,7-tetramethyl-5,7-dihydro-4H-thieno[2,3-c]pyran-2-yl)-1H-pyrazole-3-carboxamide]",25.3,5250,90.8,–,–
"CC1(C)Cc2c(sc(NC(=O)c3nnc[nH]3)c2C(N)=O)C(C)(C)O1 [Compound 18, N-(3-carbamoyl-5,5,7,7-tetramethyl-5,7-dihydro-4H-thieno[2,3-c]pyran-2-yl)-1H-1,2,4-triazole-3-carboxamide]",829,3330,467,–,–
"CC1(C)Cc2c(sc(NC(=O)c3ccccc3-c3ncc[nH]3)c2C(N)=O)C(C)(C)O1 [Compound 27, 2-(2-(1H-imidazol-2-yl)benzamido)-5,5,7,7-tetramethyl-5,7-dihydro-4H-thieno[2,3-c]pyran-3-carboxamide]",440,1670,189,–,–
"CC1(C)Cc2c(sc(NC(=O)c3ccccc3NS(C)(=O)=O)c2C(N)=O)C(C)(C)O1 [Compound 28, 5,5,7,7-tetramethyl-2-(2-(methylsulfonamido)benzamido)-5,7-dihydro-4H-thieno[2,3-c]pyran-3-carboxamide]",378,2000,147,–,–
"CC1(C)Cc2c(sc(NC(=O)C3CCNC3=O)c2C(N)=O)C(C)(C)O1 (centres unmarked) [Compound 30, N-(3-carbamoyl-5,5,7,7-tetramethyl-5,7-dihydro-4H-thieno[2,3-c]pyran-2-yl)-2-oxopyrrolidine-3-carboxamide]",141,6660,101,–,–
"CCc1[nH]nc(C(=O)Nc2sc3c(c2C(N)=O)CC(C)(C)OC3(C)C)c1Cl [Compound 36, N-(3-carbamoyl-5,5,7,7-tetramethyl-5,7-dihydro-4H-thieno[2,3-c]pyran-2-yl)-4-chloro-5-ethyl-1H-pyrazole-3-carboxamide]",13,716,12.4,–,–
"NC(=O)c1c(NC(=O)c2ccccc2O)sc2c1CCOC2 [D, 2-(2-hydroxybenzamido)-5,7-dihydro-4H-thieno[2,3-c]pyran-3-carboxamide, reference compound]",–,–,–,156,> 10000

# Further compounds by falling EC50 (CFTR ΔF508 mutant [1]; [3]), results first:
EC50 (CFTR ΔF508 mutant [1]; [3]) [nM],EC50 (CFTR G551D mutant; [4]) [nM],EC50 (CFTR ΔF508 mutant [2]) [nM],EC50 (CFTR ΔF508 mutant [1]; comparative compounds) [nM],"EC50 (CFTR G551D mutant; comparative compounds, HEK293 cells) [nM]",SMILES
952,3330,197,–,–,"COC(=O)C1(C(=O)Nc2sc3c(c2C(N)=O)CC(C)(C)OC3(C)C)CC1 [Compound 12, methyl 1-(3-carbamoyl-5,5,7,7-tetramethyl-5,7-dihydro-4H-thieno[2,3-c]pyran-2-ylcarbamoyl)cyclopropanecarboxylate]"
305,3290,422,–,–,"CC1(C)Cc2c(sc(NC(=O)c3cccnc3F)c2C(N)=O)C(C)(C)O1 [Compound 20, N-(3-carbamoyl-5,5,7,7-tetramethyl-5,7-dihydro-4H-thieno[2,3-c]pyran-2-yl)-2-fluoronicotinamide]"
102,1270,190,–,–,"CC1(C)Cc2c(sc(NC(=O)c3cccnc3O)c2C(N)=O)C(C)(C)O1 [Compound 23, N-(3-carbamoyl-5,5,7,7-tetramethyl-5,7-dihydro-4H-thieno[2,3-c]pyran-2-yl)-2-oxo-1,2-dihydropyridine-3-carboxamide]"
41.8,357,7.33,–,–,"CCc1n[nH]c(C(=O)Nc2sc3c(c2C(N)=O)CC(C)(C)OC3(C)C)c1C [Compound 19, N-(3-carbamoyl-5,5,7,7-tetramethyl-5,7-dihydro-4H-thieno[2,3-c]pyran-2-yl)-3-ethyl-4-methyl-1H-pyrazole-5-carboxamide]"
27.2,590,12.6,–,–,"Cc1cc(C(=O)Nc2sc3c(c2C(N)=O)CC(C)(C)OC3(C)C)[nH]n1 [Compound 11, N-(3-carbamoyl-5,5,7,7-tetramethyl-5,7-dihydro-4H-thieno[2,3-c]pyran-2-yl)-5-methyl-1H-pyrazole-3-carboxamide]"
23,854,39.6,–,–,"CC1(C)Cc2c(sc(NC(=O)c3n[nH]c4c3COCC4)c2C(N)=O)C(C)(C)O1 [Compound 32, N-(3-carbamoyl-5,5,7,7-tetramethyl-5,7-dihydro-4H-thieno[2,3-c]pyran-2-yl)-1,4,6,7-tetrahydropyrano[4,3-c]pyrazole-3-carboxamide]"
16,892,25.4,–,–,"CC1(C)Cc2c(sc(NC(=O)c3[nH]nc4c3COC4)c2C(N)=O)C(C)(C)O1 [Compound 37, N-(3-carbamoyl-5,5,7,7-tetramethyl-5,7-dihydro-4H-thieno[2,3-c]pyran-2-yl)-4,6-dihydro-1H-furo[3,4-c]pyrazole-3-carboxamide]"
4.4,162,6.46,–,–,"CC1(C)Cc2c(sc(NC(=O)c3ccccc3O)c2C(N)=O)C(C)(C)O1 [Compound 3, 2-(2-hydroxybenzamido)-5,5,7,7-tetramethyl-5,7-dihydro-4H-thieno[2,3-c]pyran-3-carboxamide]"
